Key:
[1] = system: POLCO—Wild buckwheat (Polygonum convolvulus); assay: General postemergence herbicidal activity, wild buckwheat; type: in vivo; settings: Fallopia convolvulus, post-emergence, 336 h; post-emergent, rate 140 g ai/ha, visual score after 14 days (0 no injury, 100 complete kill); read-out: % Growth Reduction POLCO
Experimental: (§1) Seeds or nutlets of the desired test plant species were planted in Sun Gro MetroMix® 306 planting mixture, which typically has a pH of 6.0 to 6.8 and an organic matter content of about 30 percent, in plastic pots with a surface area of 64 square centimeters. When required to ensure good germination and healthy plants, a fungicide treatment and/or other chemical or physical treatment was applied. The plants were grown for 7-21 days in a greenhouse with an approximate 15 hour photoperiod which was maintained at about 23-29° C. during the day and 22-28° C. during the night. Nutrients and water were added on a regular basis and supplemental lighting was provided with overhead metal halide 1000-Watt lamps as necessary. The plants were employed for testing when they reached the first or second true leaf stage.
(§2) A weighed amount, determined by the highest rate to be tested, of each test compound was placed in a 25 mL glass vial and was dissolved in 4 mL of a 97:3 v/v (volume/volume) mixture of acetone and dimethyl sulfoxide (DMSO) to obtain concentrated stock solutions. […] The concentrated stock solutions obtained were diluted with 20 mL of an aqueous mixture containing acetone, water, isopropyl alcohol, DMSO, Atplus 411F crop oil concentrate, and Triton X-155 surfactant in a 48.5:39:10:1.5:1.0:0.02 v/v ratio to obtain spray solutions containing the highest application rates. Additional application rates were obtained by serial dilution of 12 mL of the high rate solution into a solution containing 2 mL of 97:3 v/v (volume/volume) mixture of acetone and DMSO and 10 mL of an aqueous mixture containing acetone, water, isopropyl alcohol, DMSO, Atplus 411F crop oil concentrate, and Triton X-155 surfactant in a 48.5:39:10:1.5:1.0:0.02 v/v ratio to obtain ½X, ¼X, ⅛X and 1/16X rates of the high rate. Compound requirements are based upon a 12 mL application volume at a rate of 187 L/ha. Formulated compounds were applied to the plant material with an overhead Mandel track sprayer equipped with 8002E nozzles calibrated to deliver 187 L/ha over an application area of 0.503 square meters at a spray height of 18 inches […] above the average plant canopy height. Control plants were sprayed in the same manner with the solvent blank.
(§3) The treated plants and control plants were placed in a greenhouse as described above and watered by sub-irrigation to prevent wash-off of the test compounds. After 14 days, the condition of the test plants as compared with that of the untreated plants was determined visually and scored on a scale of 0 to 100 percent where 0 corresponds to no injury and 100 corresponds to complete kill.

[2] = system: ABUTH—Velvetleaf (Abutilon theophrasti); assay: General postemergence herbicidal activity, velvetleaf; type: in vivo; settings: post-emergence, 336 h, post-emergent, rate 140 g ai/ha, visual score after 14 days (0 no injury, 100 complete kill), read-out: % Growth Reduction ABUTH
Experimental: as §1, §2, §3

[3] = system: CIRAR—Canada thistle (Cirsium arvense); assay: General postemergence herbicidal activity, Canada thistle; type: in vivo; settings: post-emergence, 336 h, post-emergent, rate 140 g ai/ha, visual score after 14 days (0 no injury, 100 complete kill), read-out: % Growth Reduction CIRAR
Experimental: as §1, §2, §3

[4] = system: ECHCG—Barnyardgrass (Echinochloa crus-galli); assay: General postemergence herbicidal activity, barnyardgrass; type: in vivo; settings: post-emergence, 336 h, post-emergent, rate 140 g ai/ha, visual score after 14 days (0 no injury, 100 complete kill), read-out: % Growth Reduction ECHCG
Experimental: as §1, §2, §3

[5] = system: SORVU—Common sorghum (Sorghum vulgare); assay: General preemergence herbicidal activity, common sorghum; type: in vivo; settings: pre-emergent, rate 140 g ai/ha, visual score after 20-22 days (0 no injury, 100 complete kill or no emergence), read-out: % Growth Inhibition SORVU
Text: (§4) Seeds of the desired test plant species were planted in a soil matrix prepared by mixing a loam soil (43 percent silt, 19 percent clay, and 38 percent sand, with a pH of about 8.1 and an organic matter content of about 1.5 percent) and sand in a 70 to 30 ratio. The soil matrix was contained in plastic pots with a surface area of 113 square centimeters. When required to ensure good germination and healthy plants, a fungicide treatment and/or other chemical or physical treatment was applied. A weighed amount, determined by the highest rate to be tested, of each test compound was placed in a 25 mL glass vial and was dissolved in 6 mL of a 97:3 v/v (volume/volume) mixture of acetone and DMSO to obtain concentrated stock solutions. […] The stock solutions obtained were diluted with 18 mL of a 0.1% v/v aqueous solution of Tween® 20 surfactant to obtain spray solutions containing the highest application rate. Additional application rates were obtained by serial dilution of 12 mL of the high rate solution into a solution containing 3 mL of 97:3 v/v mixture of acetone and DMSO and 9 mL of the 0.1% v/v aqueous solution of Tween® 20 surfactant to obtain 1⁄2X, 1⁄4X, 1⁄8X and 1/16X rates of the high rate. Compound requirements are based upon a 12 mL application volume at a rate of 187 L/ha. Formulated compounds were applied to the plant material with an overhead Mandel track sprayer equipped with […] nozzles calibrated to deliver 187 L/ha over an application area of 0.503 square meters at a spray height of 18 inches (43 cm) above the soil surface. Control plants were sprayed in the same manner with the solvent blank. The treated pots and control pots were placed in a greenhouse maintained with an approximate 15 hour photoperiod and temperatures of about 23-29° C. during the day and 22-28° C. during the night. Nutrients and water were added on a regular basis and supplemental lighting was provided with overhead metal halide 1000-Watt lamps as necessary. The water was added by top-irrigation. After 20-22 days, the condition of the test plants that germinated and grew as compared with that of the untreated plants that emerged and grew was determined visually and scored on a scale of 0 to 100 percent where 0 corresponds to no injury and 100 corresponds to complete kill or no emergence.

[6] = system: ABUTH—Velvetleaf (Abutilon theophrasti); assay: General preemergence herbicidal activity, velvetleaf; type: in vivo; settings: pre-emergent, rate 140 g ai/ha, visual score after 20-22 days (0 no injury, 100 complete kill or no emergence), read-out: % Growth Inhibition ABUTH
Text: as §4

[7] = system: CHEAL—Common lambsquarters (Chenopodium album); assay: General preemergence herbicidal activity, common lambsquarters; type: in vivo; settings: pre-emergent, rate 140 g ai/ha, visual score after 20-22 days (0 no injury, 100 complete kill or no emergence), read-out: % Growth Inhibition CHEAL
Text: as §4

[8] = system: ZEAMX—Corn (Zea mays); assay: General preemergence herbicidal activity, corn; type: in vivo; settings: pre-emergent, rate 140 g ai/ha, visual score after 20-22 days (0 no injury, 100 complete kill or no emergence), read-out: % Growth Inhibition ZEAMX
Text: as §4

[9] = system: HELAN—Common sunflower (Helianthus annuus); assay: General preemergence herbicidal activity, common sunflower; type: in vivo; settings: pre-emergent, rate 140 g ai/ha, visual score after 20-22 days (0 no injury, 100 complete kill or no emergence), read-out: % Growth Inhibition HELAN
Text: as §4

Row | melting point | SMILES | pest or weed control at 140 g/ha [1] | pest or weed control at 140 g/ha [2] | pest or weed control at 140 g/ha [3] | pest or weed control at 140 g/ha [4] | inhibition at 140 g/ha [5] | inhibition at 140 g/ha [6] | inhibition at 140 g/ha [7] | inhibition at 140 g/ha [8] | inhibition at 140 g/ha [9]
1 | 194 to 196 °C | COC(=O)c1nc(-c2ccc(Cl)cc2F)nc(N)c1Cl [Compound 1, 6-Amino-5-chloro-2-(4-chloro-2-fluorophenyl)pyrimidine-4-carboxylic acid methyl ester] | 95% | 100% | 100% | 90% | – | – | – | – | –
2 | 187 to 189 °C | COC(=O)c1nc(-c2ccc(Cl)c(F)c2F)nc(N)c1Cl [Compound 2, 6-Amino-5-chloro-2-(4-chloro-2,3-difluorophenyl)pyrimidine-4-carboxylic acid methyl ester] | 100% | 100% | 100% | 95% | – | – | – | – | –
3 | – | COC(=O)c1nc(-c2ccc(C)c(F)c2F)nc(N)c1Cl [Compound 4, 6-Amino-5-chloro-2-(2,3-difluoro-4-methylphenyl)pyrimidine-4-carboxylic acid methyl ester] | 80% | 99% | 60% | 90% | – | – | – | – | –
4 | – | COC(=O)c1nc(-c2ccc(C(F)(F)F)cc2F)nc(N)c1Cl [Compound 5, 6-Amino-5-chloro-2-(2-fluoro-4-trifluoromethylphenyl)pyrimidine-4-carboxylic acid methyl ester] | 80% | 70% | 85% | 0% | – | – | – | – | –
5 | – | COC(=O)c1nc(-c2ccc(C(F)(F)F)c(F)c2F)nc(N)c1Cl [Compound 6, 6-Amino-5-chloro-2-(2,3-difluoro-4-trifluoromethylphenyl)pyrimidine-4-carboxylic acid methyl ester] | 95% | 90% | 80% | 25% | – | – | – | – | –
6 | – | COC(=O)c1nc(-c2cc(F)c(C)cc2F)nc(N)c1Cl [Compound 8, 6-Amino-5-chloro-2-(2,5-difluoro-4-methylphenyl)pyrimidine-4-carboxylic acid methyl ester] | 60% | 95% | 45% | 0% | – | – | – | – | –
7 | – | COC(=O)c1nc(-c2ccc(C(F)F)cc2F)nc(N)c1Cl [Compound 9, 6-Amino-5-chloro-2-(4-difluoromethyl-2-fluorophenyl)pyrimidine-4-carboxylic acid methyl ester] | 35% | 45% | 40% | 0% | – | – | – | – | –
8 | – | COC(=O)c1nc(-c2cc(Cl)c(Cl)cc2F)nc(N)c1Cl [Compound 10, 6-Amino-5-chloro-2-(4,5-dichloro-2-fluorophenyl)pyrimidine-4-carboxylic acid methyl ester] | 100% | 90% | 95% | – | – | – | – | – | –
9 | – | Cc1ccc(-c2nc(N)c(Cl)c(C(=O)O)n2)c(F)c1 [Compound 13, 6-Amino-5-chloro-2-(2-fluoro-4-methylphenyl)pyrimidine-4-carboxylic acid] | – | – | – | – | 50% | 95% | 95% | 10% | –
10 | – | Cc1ccc(-c2nc(N)c(Cl)c(C(=O)O)n2)c(F)c1F [Compound 14, 6-Amino-5-chloro-2-(2,3-difluoro-4-methylphenyl)pyrimidine-4-carboxylic acid] | 80% | 90% | 85% | 95% | 40% | 100% | 100% | 30% | 60%
11 | – | Nc1nc(-c2cc(Cl)c(Cl)cc2F)nc(C(=O)O)c1Cl [Compound 17, 6-Amino-5-chloro-2-(4,5-dichloro-2-fluorophenyl)pyrimidine-4-carboxylic acid] | 95% | 85% | 90% | – | – | – | – | – | –
12 | – | Cc1cc(F)c(-c2nc(N)c(Cl)c(C(=O)O)n2)cc1F [Compound 18, 6-Amino-5-chloro-2-(2,5-difluoro-4-methylphenyl)pyrimidine-4-carboxylic acid] | 40% | 100% | 100% | 75% | – | – | – | – | –
13 | 131 to 132 °C | CCOC(=O)c1nc(-c2ccc(Cl)cc2F)nc(N)c1Cl [Compound 19, 6-Amino-5-chloro-2-(4-chloro-2-fluorophenyl)pyrimidine-4-carboxylic acid ethyl ester] | 100% | 99% | 95% | 80% | – | – | – | – | –
14 | – | COC(=O)c1nc(-c2cc(F)c(Cl)cc2F)nc(N)c1Cl [Compound 20, 6-Amino-5-chloro-2-(4-chloro-2,5-difluorophenyl)-pyrimidine-4-carboxylic acid methyl ester] | 100% | 99% | 95% | 95% | – | – | – | – | –
